From patent US20210275640A1, “METHODS FOR ENHANCING PERMEABILITY TO BLOOD-BRAIN BARRIER, AND USES THEREOF” (ACADEMIA SINICA, priority 2014, published 2021)
Values joined by “and” are separate entries in the source; they are usually repeats but may differ in a detail not shown here. Identical values can stand only once. Like-named read-outs stand apart in the source and are kept apart here.

Columns and labels:
[1] = tested on: U-87MG glioblastoma xenograft; details: for Median Survival: VEGF 0.3 μg/kg where given
Experimental: The human luciferase-expressing glioblastoma cell line U-87MG was used for all GBM experiments. Cells were routinely cultured in EMEM with 10% FBS, at 37° C. with 5% CO2.
BALB/c nude mice were orthotropically xenografted with U87 glioma cells (2×10^5) by stereotactic (2 mm right and 1 mm posterior to the bregma, 3.5 mm deep from the dura) injection into the brain. Mouse tumor progression was measured by IVIS at different time points (0, 1, 3, 7 . . . every 7 days until 60 days).
The DNA methylating drug temozolomide (TMZ) was used as therapy for GBM model mice. […] Tumor growth was monitored by in vivo bioluminescent imaging. Mice were observed over 60 days and their survival rates recorded on a Kaplan-Meier survival curve.

[2] = tested on: blood-brain barrier (BBB)
[3] = tested on: U87 MG human glioblastoma xenograft; test: Effect of intravenous VEGF on tumor luminescence in U87 MG intracranial xenograft (IVIS); assay type: in vivo, BALB/c NU mice; details: paired t-test per mouse
[4] = tested on: blood-brain barrier (BBB); remark: listed apart in the source
[5] = tested on: MCAO ischaemic stroke model; test: Middle Cerebral Artery Occlusion (MCAO) model, hMSC cell therapy with VEGF pre-treatment; assay type: in vivo, rats
Text: The procedure published by Boyko and colleagues (Boyko, et al., Journal of Neuroscience Methods 193(2): 246-253; 2010) was used to create a middle cerebral artery occlusion (MCAO) model in rats. In brief, the left side carotid bifurcation was exposed with a self-retractor. After carefully separating the […] (ICA) from peripheral soft tissue, a small opening was created at the proximal ICA. Silicon-coated 4-0 monofilament nylon was inserted from the opening and penetrated forward to the beginning of middle cerebral artery (MCA). An O2C oximeter was used to transcranially monitor the ipsilateral MCA blood flow. Once blood flow decreased successfully, the nylon suture was fixed in situ, mimicking ischaemic stroke. After 90 minutes of ischaemic injury, the suture was removed, allowing reperfusion. A stable and reproducible cerebral infarction could be created with this procedure. […] MCAO model rats were divided into four groups: […] Discosoma sp. Red (Ds-Red)-expressing human mesenchymal stem cells (hMSCs) were used for MCAO cell therapy. […] To evaluate the infarction size, rats were sacrificed three days after ischaemic-reperfusion injury and treatment. […] Brain slices were then scanned and the infarction size was calculated by measuring the pale area with ImageJ software. […]

[6] = tested on: blood-brain barrier (BBB); test: Penetration of PEGylated fluorescent nanoparticles through the BBB (IVIS, immunohistochemistry); assay type: in vivo, FVB mice; details: 0.3 μg/Kg VEGF iv 45 min before PEGylated nanoparticles
Text: COOH-modified nanoparticles (20 to 500 nm) were covalently modified with methoxy (MeO)-PEG-amine (NH2) according to previously published protocols (Nance et al., Sci Transl Med 4(149): 149ra119; 2012). PEGylated fluorescent nanoparticles of 20 nm, 100 nm and 500 nm were used to investigate the biodistribution and extravasation after intravenous injection and perfusion into FVB mice. These nanoparticles were quantified by IVIS and immunohistochemistry.
All IVIS images were taken using a Xenogen IVIS Spectrum device (PerkinElmer, Waltham, Mass.).
The mice were subjected to perfusion following routine procedures 30 minutes after injection of the nanoparticles and the brain tissues were analyzed by IVIS imaging and immunohistochemistry. FIG. 2, panel A. The amount of nanoparticles accumulated in the brain tissue (i.e., across the BBB) was determined by measuring the intensity of the fluorescent signals. Results are illustrated in FIG. 2, panels B-D.

For `Cn1nnc2c(C(N)=O)ncn2c1=O` [TMZ, temozolomide], the “Delay of GBM growth” value ([1]; 5 mg/kg TMZ, vs GBM mice not treated by TMZ) was “at least 20 days”, the “Median Survival vs vehicle (% increase)” value ([1]; GBM mice, TMZ 5 mg/kg) was 31.58 % increase and the “Median Survival” value ([1]; GBM mice, TMZ 5 mg/kg) was 50 days. For the same molecule, the “Median Survival vs vehicle (% increase)” value ([1]; GBM mice, TMZ 20 mg/kg) was 31.58 % increase and the “Median Survival” value ([1]; GBM mice, TMZ 20 mg/kg) was 50 days.

For “vascular endothelial growth factor [VEGF]”, the “Median Survival with VEGF vs TMZ alone (% increase)” value ([1]; GBM mice, TMZ 5 mg/kg) was 10 % increase, the “Delay in tumor growth by TMZ with VEGF pre-treatment” value ([1]; VEGF 0.3 μg/kg before 5 mg/kg TMZ) was “further enhanced the delay in tumor growth” and the “Persistence of increased BBB permeability” value ([2]; 0.3 μg/kg VEGF) was “at least 60 min”. For the same molecule, the “Time of maximum BBB permeability after VEGF” value ([2]; 0.3 μg/kg VEGF) was “about 45 min”, the “Time after VEGF injection at which significant BBB permeability increase was observed” value ([2]; 0.3 μg/kg VEGF, EB injected after VEGF) was 15 min and the “Time to return to normal BBB permeability” value ([2]; after VEGF administration) was 2 h. For the same molecule, the “Duration of increased BBB permeability” value ([2]; low dose VEGF) was “about 1 hr”, the “BBB permeability of EB (Evans Blue content of brain tissue)” value ([2]; mice, VEGF 0.1-2.0 μg/kg, vs saline control) was “increased BBB permeability” and the “Time of peak BBB permeability after VEGF administration” value ([2]; summary statement) was 45 min. The “Increase of BBB permeability” value ([2]; temporary increase after VEGF administration) was “approximately three-fold”, the “Change of tumor size from D21 to D27” value [3] was “tumors were larger” and the “Cortex, signal to noise ratio T1WI Post-iv” value ([4]; 5 minutes after 0.2 mmol/kg gadolinium contrast agent, given 45 min after VEGF) was 58.30. For the same molecule, the “Increase % of signal to noise ratio (detectable level of gadolinium contrast agent in brain)” value ([4]; average, VEGF 0.3 ug/kg pre-treatment) was 15.5%, the “Signal to noise ratio (SNR) enhancement, individual mice” value ([4]; each of the 3 VEGF-treated mice) was 17% and 14% and 15.5% and the Brain infarction ([5]; MCAO, VEGF pre-treatment 0.3 μg/kg) was “reduced the brain infarction”. The “hMSCs delivered to the brain (Ds-Red fluorescent intensity)” value ([5]; hMSCs 35 min after 0.3 μg/kg VEGF, vs control) was “more hMSCs were delivered to the brain” and the “Nanoparticles crossing the BBB (fluorescence intensity in brain)” value [6] was “facilitated the nanoparticles to cross BBB”.
